# In patent US8846951B2 (AbbVie Inc., priority 2009, dated 2014):
# Read-outs that look alike come from different tables or passages of the source.
# Columns and labels:
# [1] = molecular target: T1, 5HT2B receptors (Homo sapiens, UniProt P41595); experiment: Human 5-HT2B functional high throughput screening assay in CHO-K1 cells (calcium flux); assay type: cell-based; settings: for EC50: CHO-K1 cells, calcium flux
# T1 construct: expressed in transfected cells; host or cells: CHO-K1 cells
# In short: (§1)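 CHO-K1 cells overexpressing human 5-HT2C or 5-HT2B were serum-starved overnight and loaded with Ca4 dye plus 2.5 mM probenecid for 60 min at RT. Calcium flux was read on FLIPR (ex 480/em 530 nm, 25° C) over 3 min after addition of compound, tested from 10 μM in 1:10 steps over 6 points with 0.2% DMSO. EC50 and Emax relative to serotonin came from a 4-parameter logistic fit.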
# [2] = molecular target: T2, 5HT2C receptors (Homo sapiens, UniProt P28335); experiment: Human 5-HT2C functional high throughput screening assay in CHO-K1 cells (calcium flux); assay type: cell-based; set-up: expressed in transfected cells; host or cells: CHO-K1 cells; settings: for EC50: CHO-K1 cells, calcium flux; for Emax: CHO-K1, 5-HT2C, maximum functional response as percentage relative to the effect of serotonin
# T2 sequence (P28335 33-458): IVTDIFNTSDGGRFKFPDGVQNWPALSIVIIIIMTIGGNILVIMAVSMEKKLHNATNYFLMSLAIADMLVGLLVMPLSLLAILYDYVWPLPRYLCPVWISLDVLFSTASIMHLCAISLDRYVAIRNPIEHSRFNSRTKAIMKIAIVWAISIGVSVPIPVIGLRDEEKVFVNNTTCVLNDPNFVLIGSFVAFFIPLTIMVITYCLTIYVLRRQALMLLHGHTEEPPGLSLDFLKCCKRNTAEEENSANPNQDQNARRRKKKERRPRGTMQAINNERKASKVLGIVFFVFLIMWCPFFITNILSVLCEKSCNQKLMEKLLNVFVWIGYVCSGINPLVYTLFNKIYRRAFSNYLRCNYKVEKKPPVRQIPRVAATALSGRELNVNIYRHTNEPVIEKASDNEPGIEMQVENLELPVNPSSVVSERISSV
# In short: as §1
# [3] = 5-HT2B agonist activity, read-out: EC50
# [4] = 5-HT2B, maximum functional response as percentage relative to the effect of serotonin
# [5] = 5-HT2C agonist activity, read-out: EC50
# T1 sequence (P41595 whole entry): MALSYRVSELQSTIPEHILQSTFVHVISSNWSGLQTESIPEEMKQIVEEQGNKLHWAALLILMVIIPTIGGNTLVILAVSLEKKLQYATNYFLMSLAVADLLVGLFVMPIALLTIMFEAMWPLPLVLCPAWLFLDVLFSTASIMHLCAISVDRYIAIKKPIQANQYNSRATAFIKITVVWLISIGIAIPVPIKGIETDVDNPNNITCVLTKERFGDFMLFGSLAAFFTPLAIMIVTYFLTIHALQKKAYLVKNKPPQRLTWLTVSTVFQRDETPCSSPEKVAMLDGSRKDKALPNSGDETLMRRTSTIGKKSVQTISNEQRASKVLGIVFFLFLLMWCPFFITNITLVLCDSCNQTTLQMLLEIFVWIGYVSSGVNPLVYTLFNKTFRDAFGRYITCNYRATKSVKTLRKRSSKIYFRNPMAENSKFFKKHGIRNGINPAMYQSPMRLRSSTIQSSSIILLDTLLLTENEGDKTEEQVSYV
Structure (SMILES),"EC50 [1, 3]","Emax [1, 4]","EC50 [2, 5]",Emax ([2]; read-out: Emax),"EC50 ([1]; EC50, 5-HT2B agonist activity)",Emax [2],"EC50 ([2]; EC50, 5-HT2C agonist activity)",Emax ([1]; CHO-K1)
"C[C@H](Cc1ccccc1)Oc1ccc2c(c1)C(=O)NC[C@H]1CNC[C@H]21 [Example 181, (3aR,10bS)-8-((R)-1-Phenylpropan-2-yloxy)-1,2,3,3a,4,5-hexahydrobenzo[e]pyrrolo[3,4-c]azepin-6(10bH)-one]",> 10 µM,inactive,10 nM,> 120%,–,–,–,–
"CN1C[C@@H]2CNC(=O)c3cc(Cl)ccc3[C@H]2C1 [Example 199, (3aS,10bS)-8-Chloro-2-methyl-1,2,3,3a,4,5-hexahydrobenzo[e]pyrrolo[3,4-c]azepin-6(10bH)-one]",–,inactive,–,–,> 10 µM,> 120%,10 nM,–
"CN1C[C@@H]2CNC(=O)c3cc(O)ccc3[C@H]2C1 [Example 200, (3aS,10bS)-8-Hydroxy-2-methyl-1,2,3,3a,4,5-hexahydrobenzo[e]pyrrolo[3,4-c]azepin-6(10bH)-one]",> 10 µM,inactive,500 nM,–,–,55%,–,–
"CN1C[C@@H]2CNC(=O)c3cc(OCc4cccc(F)c4)ccc3[C@H]2C1 [Example 206, (3aS,10bS)-8-(3-Fluorobenzyloxy)-2-methyl-1,2,3,3a,4,5-hexahydrobenzo[e]pyrrolo[3,4-c]azepin-6(10bH)-one]",> 10 µM,inactive,2 nM,> 120%,–,–,–,–
"CN1C[C@@H]2CNC(=O)c3cc(OCc4ccccc4F)ccc3[C@H]2C1 [Example 207, (3aS,10bS)-8-(2-Fluorobenzyloxy)-2-methyl-1,2,3,3a,4,5-hexahydrobenzo[e]pyrrolo[3,4-c]azepin-6(10bH)-one]",> 10 µM,inactive,1 nM,> 120%,–,–,–,–
"CN1C[C@@H]2CNC(=O)c3cc(OCc4cc(F)cc(F)c4)ccc3[C@H]2C1 [Example 208, (3aS,10bS)-8-(3,5-Difluorobenzyloxy)-2-methyl-1,2,3,3a,4,5-hexahydrobenzo[e]pyrrolo[3,4-c]azepin-6(10bH)-one]",> 10 µM,inactive,2 nM,> 120%,–,–,–,–
"CN1C[C@@H]2CNC(=O)c3cc(OCc4c(F)cccc4F)ccc3[C@H]2C1 [Example 209, (3aS,10bS)-8-(2,6-Difluorobenzyloxy)-2-methyl-1,2,3,3a,4,5-hexahydrobenzo[e]pyrrolo[3,4-c]azepin-6(10bH)-one]",> 10 µM,inactive,1 nM,> 120%,–,–,–,–
"CN1C[C@@H]2CNC(=O)c3cc(OCc4ccc(F)c(F)c4)ccc3[C@H]2C1 [Example 210, (3aS,10bS)-8-(3,4-Difluorobenzyloxy)-2-methyl-1,2,3,3a,4,5-hexahydrobenzo[e]pyrrolo[3,4-c]azepin-6(10bH)-one]",> 10 µM,inactive,2 nM,> 120%,–,–,–,–
"CN1C[C@@H]2CNC(=O)c3cc(OCc4ccc(F)cc4)ccc3[C@H]2C1 [Example 211, (3aS,10bS)-8-(4-Fluorobenzyloxy)-2-methyl-1,2,3,3a,4,5-hexahydrobenzo[e]pyrrolo[3,4-c]azepin-6(10bH)-one]",> 10 µM,inactive,2 nM,> 120%,–,–,–,–
"CN1C[C@@H]2CNC(=O)c3cc(OCc4cccc(F)c4F)ccc3[C@H]2C1 [Example 212, (3aS,10bS)-8-(2,3-Difluorobenzyloxy)-2-methyl-1,2,3,3a,4,5-hexahydrobenzo[e]pyrrolo[3,4-c]azepin-6(10bH)-one]",> 10 µM,inactive,0.9 nM,> 120%,–,–,–,–
"CN1C[C@@H]2CNC(=O)c3cc(OCc4c(F)ccc(F)c4F)ccc3[C@H]2C1 [Example 213, (3aS,10bS)-2-Methyl-8-(2,3,6-trifluorobenzyloxy)-1,2,3,3a,4,5-hexahydrobenzo[e]pyrrolo[3,4-c]azepin-6(10bH)-one]",> 10 µM,inactive,1 nM,> 120%,–,–,–,–
"O=C1NC[C@H]2CNC[C@@H]2c2ccc(-c3ccc(F)cc3)cc21 [Example 220, (3aR,10bS)-8-(4-Fluorophenyl)-1,2,3,3a,4,5-hexahydrobenzo[e]pyrrolo[3,4-c]azepin-6(10bH)-one]",> 10 µM,inactive,< 0.1 nM,> 120%,–,–,–,–
"O=C1NC[C@@H]2CNC[C@H]2c2ccc(-c3ccc(F)cc3)cc21 [Example 221, (3aS,10bR)-8-(4-Fluorophenyl)-1,2,3,3a,4,5-hexahydrobenzo[e]pyrrolo[3,4-c]azepin-6(10bH)-one]",> 10 µM,inactive,–,> 120%,–,–,–,–
"CN1C[C@@H]2CNC[C@H]2c2ccc(F)cc2C1=O [Example 226, (3aS,10bR)-8-Fluoro-5-methyl-1,2,3,3a,4,5-hexahydrobenzo[c]pyrrolo[3,4-e]azepin-6(10bH)-one]",–,inactive,–,–,> 10 µM,> 120%,–,–
"CN1C[C@@H]2CNC(=O)c3cc(-c4cccc(S(C)(=O)=O)c4)ccc3[C@H]2C1 [Example 228, (3aS,10bS)-2-Methyl-8-(3-(methylsulfonyl)phenyl)-1,2,3,3a,4,5-hexahydrobenzo[c]pyrrolo[3,4-e]azepin-6(10bH)-one]",> 10 µM,inactive,7 nM,> 120%,–,–,–,–
"CN1C[C@H]2CNC(=O)c3cc(-c4cccc(S(C)(=O)=O)c4)ccc3[C@@H]2C1 [Example 229, (3aR,10bR)-2-Methyl-8-(3-(methylsulfonyl)phenyl)-1,2,3,3a,4,5-hexahydrobenzo[c]pyrrolo[3,4-e]azepin-6(10bH)-one]",> 10 µM,inactive,–,90%,–,–,–,–
"Clc1ccc2c(c1)[C@H]1CNC[C@@H]1CCO2 [Example 233, (3aR,10bS)-9-Chloro-2,3,3a,4,5,10b-hexahydro-1H-[1]benzoxepino[4,5-c]pyrrole]",–,–,–,–,–,> 120%,–,55%
"CN1C[C@@H]2CCOc3ccc(Cl)cc3[C@H]2C1 [Example 234, (3aR,10bS)-9-Chloro-2-methyl-2,3,3a,4,5,10b-hexahydro-1H-[1]benzoxepino[4,5-c]pyrrole]",–,–,–,–,0.01 µM,> 120%,10 nM,70%
"CN1C[C@@H]2CCOc3ccccc3[C@H]2C1 [Example 235, (3aR,10bS)-2-Methyl-2,3,3a,4,5,10b-hexahydro-1H-[1]benzoxepino[4,5-c]pyrrole]",–,–,–,–,0.1 µM,120%,40 nM,45%
"C[C@H](O)c1cccc(-c2ccc3c(c2)C(=O)NC[C@H]2CN(C)C[C@H]32)c1 [Example 248, (3aS,10bS)-8-(3-((S)-1-Hydroxyethyl)phenyl)-2-methyl-1,2,3,3a,4,5-hexahydrobenzo[e]pyrrolo[3,4-c]azepin-6(10bH)-one]",> 10 µM,inactive,2 nM,100%,–,–,–,–
"C[C@@H](O)c1cccc(-c2ccc3c(c2)C(=O)NC[C@H]2CN(C)C[C@H]32)c1 [Example 249, (3aS,10bS)-8-(3-((R)-1-Hydroxyethyl)phenyl)-2-methyl-1,2,3,3a,4,5-hexahydrobenzo[e]pyrrolo[3,4-c]azepin-6(10bH)-one]",> 10 µM,inactive,2 nM,100%,–,–,–,–
"COc1ccc2c(c1)[C@H]1CNC[C@@H]1CCC2=O [Example 259, (3aR,10bS)-9-Methoxy-2,3,3a,4,5,10b-hexahydrobenzo[3,4]cyclohepta[1,2-c]pyrrol-6(1H)-one]",–,–,–,–,1 µM,> 120%,60 nM,85%
"c1ccc2c(c1)OCC[C@H]1CNC[C@H]21 [Example 270, (3aR,10bS)-2,3,3a,4,5,10b-Hexahydro-1H-[1]benzoxepino[4,5-c]pyrrole]",–,–,–,–,0.2 µM,> 120%,10 nM,50%
"c1ccc2c(c1)OCC[C@@H]1CNC[C@@H]21 [Example 271, (3aS,10bR)-2,3,3a,4,5,10b-Hexahydro-1H-[1]benzoxepino[4,5-c]pyrrole]",–,–,–,–,5 µM,120%,400 nM,30%
"CN1C[C@@H]2CNC(=O)c3cc(OCc4ccccc4)ccc3[C@H]2C1 [Example 274, (3aS,10bS)-8-(Benzyloxy)-2-methyl-1,2,3,3a,4,5-hexahydrobenzo[e]pyrrolo[3,4-c]azepin-6(10bH)-one]",–,inactive,–,–,> 10 µM,> 120%,3 nM,–
"COc1ccccc1-c1ccc2c(c1)C(=O)NC[C@H]1CN(C)C[C@H]21 [Example 275, (3aS,10bS)-8-(2-Methoxyphenyl)-2-methyl-1,2,3,3a,4,5-hexahydrobenzo[e]pyrrolo[3,4-c]azepin-6(10bH)-one]",> 10 µM,inactive,20 nM,> 120%,–,–,–,–
